Measurements from US9494594B2, “Method of determining administration effect in cancer chemotherapy with S-1” (National University Corporation Chiba University, priority 2012, dated 2016).

Tested on: shDCN cell line and Mock cell line of anticancer drug-resistant cell lines Sa-3R and KB-R
Experiment: 5-FU sensitivity test, MTS cell survival assay
Assay type: cell-based
Conditions: 72 hours incubation, shDCN vs Mock cell line
Protocol: Next, the shDCN cell line and the Mock cell line were cultured in the presence of an anticancer drug, and a change in the degree of resistance to the anticancer drug by the suppressed expression of DCN was verified by measuring a change in cell growth ability. 5-FU was used as the anticancer drug.
The shDCN cell line and the Mock cell line were each seeded to a 96-well plate at a density of 2×10^3 cells/100 μl of medium/well, and simultaneously mixed with 10 μl of a medium supplemented with 5-FU. The concentration of 5-FU was adjusted so that the final concentration was 1 μM to 1×10^4 μM. After that, the cells were incubated for 72 hours, and a cell survival rate was evaluated by an MTS assay. An MTS solution (product of Promega Corporation) was added at a volume of 10 μl/well, and the cells were incubated for 4 hours. After that, counting was performed with a plate reader at a wavelength of 490 nm. A 50% survival concentration (IC50) was determined based on the results of, the MTS assay.

O=c1[nH]cc(F)c(=O)[nH]1 [5-FU, 5-fluorouracil]
IC50 value of shDCN cell line relative to Mock cell line (increase in sensitivity to 5-FU): about 10 times lower
